This note sets out measurements from US10266526B2, “Substituted 1,2,3-triazoles as SMYD inhibitors for treating cancer” (EPIZYME, INC., priority 2014, dated 2019).

By IC50 is commonly meant the concentration at which inhibition is half-maximal.

The target in the assay is SMYD2 (Homo sapiens (Human), UniProt Q9NRG4). The experiment in a line: SMYD2 biochemical assay (SMYD2 enzyme assay on peptide substrate, 3H-SAM Flashplate). As to conditions: read-out: SMYD2 Biochem IC50; IC50 values are an average of n = 1 to n = 50.

The structures appear in SMILES notation.

Chain of SMYD2 (Q9NRG4 whole entry): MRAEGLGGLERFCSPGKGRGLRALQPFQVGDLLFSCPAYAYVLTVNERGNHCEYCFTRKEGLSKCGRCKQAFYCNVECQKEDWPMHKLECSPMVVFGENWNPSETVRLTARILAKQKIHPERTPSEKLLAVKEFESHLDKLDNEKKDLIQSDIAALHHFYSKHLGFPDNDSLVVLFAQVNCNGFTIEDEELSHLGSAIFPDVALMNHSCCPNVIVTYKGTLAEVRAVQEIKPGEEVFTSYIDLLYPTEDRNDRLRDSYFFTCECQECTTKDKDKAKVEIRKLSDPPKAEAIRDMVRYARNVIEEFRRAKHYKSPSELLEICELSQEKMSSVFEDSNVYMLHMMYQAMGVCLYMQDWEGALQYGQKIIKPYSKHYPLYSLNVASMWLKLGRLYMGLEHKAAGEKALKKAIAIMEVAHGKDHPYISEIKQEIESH

Regarding `COc1ccc(COc2ccc(C(C)N3CC(NC(=O)c4cn(C5CC5)nn4)C3)cc2)cc1` (stereo not drawn) [compound 855, 1-cyclopropyl-N-[1-(1-{4-[(4-methoxyphenyl)methoxy]phenyl}ethyl)azetidin-3-yl]-1H-1,2,3-triazole-4-carboxamide], the IC50 turned out to be 0.159 µM.
For the compound `COc1ccc(C(C)N2CC(NC(=O)c3cc(C4CC4)cnn3)C2)cc1` (stereo not drawn) [compound 856, 5-cyclopropyl-N-{1-[1-(4-methoxyphenyl)ethyl]azetidin-3-yl}pyridazine-3-carboxamide], the IC50 worked out at 0.603 µM.
As for `CC(c1ccc(OCCN(C)C)cc1)N1CC(NC(=O)c2cn(C3CC3)nn2)C1` (stereo not drawn) [compound 857, 1-cyclopropyl-N-[1-(1-{4-[2-(dimethylamino)ethoxy]phenyl}ethyl)azetidin-3-yl]-1H-1,2,3-triazole-4-carboxamide], the figure is 1.98 µM; as for `CC(c1ccc(OCCCN(C)C)cc1)N1CC(NC(=O)c2cn(C3CC3)nn2)C1` (stereo not drawn) [compound 858, 1-cyclopropyl-N-[1-(1-{4-[3-(dimethylamino)propoxy]phenyl}ethyl)azetidin-3-yl]-1H-1,2,3-triazole-4-carboxamide], 4.79 µM.
Take `CC(c1ccccc1Cl)N1CC(NC(=O)c2cn(C3CC3)nn2)C1` (stereo not drawn) [compound 859, N-{1-[1-(2-chlorophenyl)ethyl]azetidin-3-yl}-1-cyclopropyl-1H-1,2,3-triazole-4-carboxamide]: the IC50 was determined as 0.16 µM.
As for `COc1ccc(Cl)cc1C(C)N1CC(NC(=O)c2cn(C3CC3)nn2)C1` (stereo not drawn) [compound 860, N-{1-[1-(5-chloro-2-methoxyphenyl)ethyl]azetidin-3-yl}-1-cyclopropyl-1H-1,2,3-triazole-4-carboxamide], the figure is 2.79 µM.
To `COc1cccc(C(C)N2CC(NC(=O)c3cc(C4CC4)cnn3)C2)c1OC` (stereo not drawn) [compound 861, 5-cyclopropyl-N-{1-[1-(2,3-dimethoxyphenyl)ethyl]azetidin-3-yl}pyridazine-3-carboxamide] belongs 0.121 µM; to `CC(c1ccc(NCc2ccccc2)cc1)N1CC(NC(=O)c2cn(C3CC3)nn2)C1` (stereo not drawn) [compound 862, N-(1-{1-[4-(benzylamino)phenyl]ethyl}azetidin-3-yl)-1-cyclopropyl-1H-1,2,3-triazole-4-carboxamide], 0.334 µM; to `CC(c1ccc(OCC(C)(C)C)cc1)N1CC(NC(=O)c2cn(C3CC3)nn2)C1` (stereo not drawn) [compound 864, 1-cyclopropyl-N-(1-{1-[4-(2,2-dimethylpropoxy)phenyl]ethyl}azetidin-3-yl)-1H-1,2,3-triazole-4-carboxamide], 3.14 µM.
On to `COc1cnc(C(C)N2CC(NC(=O)c3cn(C4CC4)nn3)C2)nc1` (stereo not drawn) [compound 865, 1-cyclopropyl-N-{1-[1-(5-methoxypyrimidin-2-yl)ethyl]azetidin-3-yl}-1H-1,2,3-triazole-4-carboxamide], for which the IC50 is 1.64 µM.
To `CC[C@@H](c1cccc(Cl)c1)N1CC(NC(=O)c2cc(C3CC3)cnn2)C1` [compound 866, N-{1-[(1S)-1-(3-chlorophenyl)propyl]azetidin-3-yl}-5-cyclopropylpyridazine-3-carboxamide] belongs 0.355 µM; to `CN(C)CCCNC(=O)c1cc(C2CC2)cnn1` [compound 867, 5-cyclopropyl-N-[3-(dimethylamino)propyl]pyridazine-3-carboxamide], > 50 µM; to `CC(c1ccc(OCc2ccccc2)c(Cl)c1)N1CC(NC(=O)c2cn(C3CC3)nn2)C1` (stereo not drawn) [compound 868, N-(1-{1-[4-(benzyloxy)-3-chlorophenyl]ethyl}azetidin-3-yl)-1-cyclopropyl-1H-1,2,3-triazole-4-carboxamide], 0.925 µM.
As for `CN(C)CCNC(=O)c1cc(C2CC2)cnn1` [compound 869, 5-cyclopropyl-N-[2-(dimethylamino)ethyl]pyridazine-3-carboxamide], the figure is 21.1 µM; as for `C[C@@H](c1ccccc1)N1CC(NC(=O)c2ncc(C3CC3)[nH]2)C1` [compound 914, 5-cyclopropyl-N-{1-[(1S)-1-phenylethyl]azetidin-3-yl}-1H-imidazole-2-carboxamide], 0.729 µM.
